From the NIST ThermoML archive (doi:10.1021/acs.jced.7b00363)

How the values were obtained:
[1] = Surface laser light scattering (SLLS); for viscosity: Liquid
[2] = wn = mass fraction of the nth substance listed; settings: Surface laser light scattering (SLLS); for viscosity: Liquid

CCCCCCCCCCCC [dodecane]
[1]
Settings | surface tension liquid-gas [mN/m] | viscosity [mPa·s]
323.15 K | 21.64 | 0.9225
348.15 K | 19.91 | 0.6763
373.15 K | 18.19 | 0.507
398.15 K | 16.22 | 0.4003
423.15 K | 14.33 | 0.3223
448.15 K | 12.38 | 0.2595
473.15 K | 10.67 | 0.2156
498.15 K | 8.95 | 0.1821
523.15 K | 7.25 | 0.1532
548.15 K | 5.64 | 0.1277
573.15 K | 4.14 | 0.1051

CCCCCCCCCCCCCCCCCCCCCCCCCCCC [octacosane]
[1]
Settings | surface tension liquid-gas [mN/m] | viscosity [mPa·s]
398.15 K | 21.33 | 1.814
423.15 K | 19.53 | 1.361
448.15 K | 17.78 | 1.025
473.15 K | 16.57 | 0.8318
498.15 K | 15.38 | 0.6847
523.15 K | 14.18 | 0.5675
548.15 K | 12.86 | 0.4753
573.15 K | 11.51 | 0.3995

CCCCCCCCCCCCCCCCCCCCCCCCCCCC [octacosane] + CCCCCCCCCCCC
[2]
Settings | surface tension liquid-gas [mN/m] | viscosity [mPa·s]
373.15 K, w2 = 0.156 | 21.71 | 1.944
398.15 K, w2 = 0.156 | 19.8 | 1.412
423.15 K, w2 = 0.156 | 18.5 | 1.089
448.15 K, w2 = 0.155 | 17.07 | 0.8604
473.15 K, w2 = 0.155 | 15.59 | 0.6912
498.15 K, w2 = 0.154 | 14.15 | 0.5671
523.15 K, w2 = 0.152 | 12.84 | 0.4787
548.15 K, w2 = 0.15 | 11.56 | 0.4075
573.15 K, w2 = 0.148 | 10.3 | 0.3445
